Results on one compound are retold here after patent US12121525B2, “Methods for treating GI syndrome and graft versus host disease” (Sloan Kettering Institute for Cancer Research, priority 2007, dated 2024).

Experiment [1] has as its system Jurkat cells. As to the kind of experiment: UV-C- and anti-Fas-induced apoptosis in Jurkat cells. Format: cell-based, human. To be noted: 50 mM imipramine 30 min; 4 hours post UV-C or Fas stimulation. The procedure: (§1) Others have shown that ceramide is required for Fas-induced apoptosis in some cell types. We looked at the requirement for UV-C-induced ceramide generation in initiating the apoptotic response. By UV-C is meant ultraviolet radiation in the 100-280 nm wavelength range. In these studies imipramine was used to inhibit ASMase-activity. Pre-treatment of Jurkat cells with […] imipramine for 30 min decreased baseline ASMase activity, abrogated UV-C and Fas-induced ASMase activation at 1 min post stimulation and ceramide generation at 2 minutes, and attenuated apoptosis at 4 hours post-stimulation. […] Grassme et al., J Biol Chem. 2001, 276:20589, incorporated herein by reference.
H. Grassme, H. Schwarz, and E. Gulbins, Biochem Biophys Res Commun 284 (4), 1016 (2001), incorporated herein by reference. […] Importantly, we also observed that anti-ceramide and nystatin pretreatment yielded an approximate 1 log increase in clonogenic cell survival compared to vehicle controls after 5-50 J/m^2 UV-C or anti-Fas stimulation. […]
Apoptosis was assessed in vitro by two different techniques. […] Morphologic changes of nuclear apoptosis including chromatin condensation, segmentation and compaction along the periphery of the nucleus or the appearance of apoptotic bodies were quantified using an Axiovert S-100 Zeiss fluorescence microscope as previously described ^33. […]

In experiment [2] the test system is Jurkat cells. As to the kind of experiment: Ceramide generation in Jurkat cells (diacylglycerol kinase assay). Format: cell-based, human. The following applies: 50 mM imipramine 30 min; 2 minutes post UV-C or Fas stimulation. The procedure:
as §1
Jurkat cells, stimulated with UV-C or CH-11, were incubated for the indicated times at 37° C. Stimulation was terminated by the addition of 2 ml of chloroform:methanol:HCl (100:100:1,v/v/v), and ceramide was quantified by the diacyglycerol kinase assay, as described^97.

For experiment [3], the target named is T1, ASMase (Homo sapiens, UniProt P17405).
T1 construct: Jurkat cells were lysed in PBS containing 0.2% Triton X-100; endogenous in cells; host or cells: Jurkat T lymphocytes (clone E6-1, ATCC)
T1 sequence (P17405 47-631): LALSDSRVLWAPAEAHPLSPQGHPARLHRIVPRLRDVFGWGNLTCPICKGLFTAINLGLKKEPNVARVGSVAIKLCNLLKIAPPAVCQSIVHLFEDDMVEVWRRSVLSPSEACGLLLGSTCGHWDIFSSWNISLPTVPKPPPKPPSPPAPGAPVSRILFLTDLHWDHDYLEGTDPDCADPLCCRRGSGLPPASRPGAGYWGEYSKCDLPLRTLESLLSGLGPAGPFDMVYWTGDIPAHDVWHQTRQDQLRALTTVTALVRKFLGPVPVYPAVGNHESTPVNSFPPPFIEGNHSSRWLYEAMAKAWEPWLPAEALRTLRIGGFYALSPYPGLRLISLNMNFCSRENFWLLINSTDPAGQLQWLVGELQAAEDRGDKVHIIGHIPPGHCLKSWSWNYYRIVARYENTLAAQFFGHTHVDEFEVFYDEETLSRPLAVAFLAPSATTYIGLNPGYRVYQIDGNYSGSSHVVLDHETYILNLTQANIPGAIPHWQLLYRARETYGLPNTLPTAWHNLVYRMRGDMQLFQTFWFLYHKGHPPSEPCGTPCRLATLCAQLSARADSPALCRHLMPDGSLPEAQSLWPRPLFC
As to the kind of experiment: ASMase activity assay in Jurkat cells stimulated with UV-C or anti-Fas. Format: cell-based. As for the experimental part: as §1, with “reference. […]” for “reference.”
ASMase activity was measured using a fluorescence-based, high-performance liquid chromatographic (HPLC) assay^98. […] ASMase activity was measured by incubating an equal volume of lysate in assay buffer [500 μM BODIPY-C12 sphingomyelin (Molecular Probes, Eugene OR), 0.1 mM ZnCl2, 0.1 M sodium acetate pH 5.0 and 0.6% Triton X-100] for 60 min at 37° C. […] Fluorescence was quantified using a Waters 474 (Waters Corp.) fluorescence detector set to excitation and emission wavelengths of 505 and 540 nm, respectively. The amount of product generated was calculated using a regression equation derived from a standard curve established for known amounts of BODIPY-C12 ceramide standard. […]

SMILES strings stand for the structures.

On to `CN(C)CCCN1c2ccccc2CCc2ccccc21` [imipramine], for which the apoptosis result in experiment [1] is recorded as “attenuated”. The ceramide generation result in experiment [2] was “abrogated”. Besides, in experiment [3] (50 mM imipramine 30 min, 1 min post stimulation), the “UV-C and Fas-induced ASMase activation” value is “abrogated”. For the same compound, the “baseline ASMase activity” value in experiment [3] (pre-treatment with 50 mM imipramine for 30 min) is recorded as “decreased”.
